# Experimental data as given in BindingDB's records for doi:10.1021/bi401354d (Pfizer, 2013).
# Target: T1, Myeloperoxidase (Homo sapiens, UniProt P05164)
# T1 sequence (P05164 whole entry): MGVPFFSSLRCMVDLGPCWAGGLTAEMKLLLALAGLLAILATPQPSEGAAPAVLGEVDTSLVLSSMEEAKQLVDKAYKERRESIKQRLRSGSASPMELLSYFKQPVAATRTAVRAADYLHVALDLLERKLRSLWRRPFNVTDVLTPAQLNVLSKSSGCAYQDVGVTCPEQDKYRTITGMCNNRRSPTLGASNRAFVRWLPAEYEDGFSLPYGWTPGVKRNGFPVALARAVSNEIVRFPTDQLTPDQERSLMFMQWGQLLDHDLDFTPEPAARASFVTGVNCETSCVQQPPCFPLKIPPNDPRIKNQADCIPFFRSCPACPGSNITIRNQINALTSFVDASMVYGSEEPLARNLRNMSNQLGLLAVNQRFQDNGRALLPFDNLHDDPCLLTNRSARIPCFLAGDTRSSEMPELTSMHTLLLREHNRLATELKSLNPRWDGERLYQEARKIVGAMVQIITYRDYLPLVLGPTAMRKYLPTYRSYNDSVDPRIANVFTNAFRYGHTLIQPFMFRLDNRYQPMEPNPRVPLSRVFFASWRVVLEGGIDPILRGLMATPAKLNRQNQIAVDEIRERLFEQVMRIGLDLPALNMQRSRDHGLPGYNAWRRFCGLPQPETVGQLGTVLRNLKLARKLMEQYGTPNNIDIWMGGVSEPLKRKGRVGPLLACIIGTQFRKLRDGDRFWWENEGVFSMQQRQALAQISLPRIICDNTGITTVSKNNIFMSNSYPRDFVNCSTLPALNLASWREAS
# Assay: MPO Activity Assay
# Conditions: pH 7.4
# Method: Assay mixtures (100 µL) contained 50 mM NaPi (pH 7.4), 150 mM NaCl, 1 mM DTPA, 2% DMSO, the indicated concentrations of H2O2, and Amplex Red. The reactions were initiated by the addition of 100 pM MPO. The fluorescent changes were measured at 530 (excitation) and 580 nm (emission).
row,SMILES,Ki
1,"CCO[C@H](C)Cn1c(=S)[nH]c(=O)c2[nH]cnc21 [3‐[(2R)‐2‐ethoxypropyl]‐2‐sulfanylidene‐1,9‐ dihydropurin‐6‐one (C)]",546 nM
2,"CCO[C@@H](C)Cn1c(=S)[nH]c(=O)c2[nH]cnc21 [3‐[(2S)‐2‐ethoxypropyl]‐2‐sulfanylidene‐1,9‐ dihydropurin‐6‐one (D)]",429 nM
3,"CCOC(C)Cn1c(=S)[nH]c(=O)c2[nH]cnc21 (stereo not drawn) [3‐(2‐ethoxypropyl)‐2‐sulfanylidene‐1,9‐ dihydropurin‐6‐one (A)]",413 nM
